Columns and labels:
[1] = biological target: hSTING(WT) (Homo sapiens, UniProt Q86WV6, H232R); test: Differential scanning fluorometry (DSF) binding to purified hSTING WT; design: DNA encoding amino acids 140-379 (amino acid numbering corresponding to Swiss Prot Q86WV6); 6xHIS (N, cleaved yes); SUMO (N, cleaved yes); made in house; host or cells: Rosetta2 (DE3) E. coli; settings: DSF, 1 mg/ml STING AA140-379, ligand 1 mM
Procedure: (§1) Cells were grown in lysogeny broth at 37° C. until a […] absorbance of 0.6 was reached. […] Cell pellets were re-suspended on ice in a buffer containing 50 mM Tris hydrochloride (Tris-HCl) pH 7.5, 500 mM sodium chloride (NaCl), 20 mM imidazole, 10% glycerol, 1 mM tris(2-carboxyethyl)phosphine hydrochloride (TCEP) and protease inhibitor tablet (Pierce) (Buffer A). Cells were lysed using an S-450D sonifier (Emmerson industrial) on ice. […] Protein was aliquoted, flash frozen in liquid nitrogen and stored at −80° C. until use.
(§2) The protein is heated in the presence of a dye that binds to and fluoresces in hydrophobic environments. The protein is thermally denatured by heating resulting in increased dye binding to the unfolded protein and fluorescence. The temperature midpoint (Tm) of a proteins denaturation is established by calculating the half maximal value of the denaturation curve. The temperature midpoint of the protein in the presence of a ligand is directly related to the affinity of the ligand for the protein and therefore its ability to stabilize the protein at higher temperatures.
(§3) Samples were placed in hard shell PCR plate (Bio-Rad). The fluorescence as a function of temperature was recorded in a CFX 96 real time PCR machine (Bio-Rad) reading on the HEX channel, excitation 450-490, emission 560-580 nm. The temperature gradient was from 15-80° C. ramping 0.5° C. per 15 seconds and recording every 0.5° C. After subtraction of the background signal from a sample lacking protein and ligand. The midpoint temperature (Tm) was calculated by fitting the curves of the fluorescence as a function of temperature to a Boltzmann sigmoidal function (Graph Pad Prism).

[2] = biological target: T1, human-STING(E149-S379)H232R protein (Homo sapiens, UniProt Q86WV6, H232R); test: Surface Plasmon Resonance binding to hSTING WT; settings: Biacore T200, 15° C., steady-state analysis
T1 construct: His6 (C); made in house; host or cells: E. coli
T1 sequence (Q86WV6 with tags, fused parts or gaps H232R): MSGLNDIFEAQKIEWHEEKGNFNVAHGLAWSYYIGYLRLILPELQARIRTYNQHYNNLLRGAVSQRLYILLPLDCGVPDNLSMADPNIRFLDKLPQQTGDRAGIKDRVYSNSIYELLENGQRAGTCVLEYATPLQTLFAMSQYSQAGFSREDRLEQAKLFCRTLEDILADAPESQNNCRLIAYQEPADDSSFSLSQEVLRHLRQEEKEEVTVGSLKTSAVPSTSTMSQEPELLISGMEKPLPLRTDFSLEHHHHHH
Procedure: Binding of the mono- and di-F CDN compounds was assessed using Surface Plasmon Resononce to determine a binding constant. An E. coli expression construct (human-STING[E149-S379]H232R) was prepared harboring the protein sequence:
Aliquots were prepared and stored at −80° C. in 30 mM Tris pH 7.5/100 mM NaCl/10% glycerol.
N-terminal avi-tagged human-STING(E149-S379)H232R protein was immobilized (2500 RUs) on a streptavidin chip at 15° C. in a Biacore T200 (GE Healthcare). Titrations of cyclic dinucleotides (CDNs as indicated in Table 6) in 30 mM Tris pH 7.5/50 mM NaCL/0.005% Tween 20/1 mM DTT/2% DMSO, were profiled (30 μLs/min, 180 seconds for sample contact/120 seconds for dissociation) against hSTING at 15° C. Kinetic analysis of the data was performed using Biacore T200 Evaluation software. Steady-state analysis of the data was performed using Graphpad Prism 6.0 software, using one site-specific binding algorithm (Equation is Y=Bmax*X/(Kd+X)).

[3] = biological target: T2, HAQ allele hSTING (Homo sapiens, UniProt Q86WV6, G230A/H232R/R293Q); test: Differential scanning fluorometry (DSF) binding to purified hSTING HAQ allele; settings: DSF, 1 mg/ml STING AA140-379, ligand 1 mM
T2 construct: DNA encoding amino acids 140-379 (amino acid numbering corresponding to Swiss Prot Q86WV6); 6xHIS (N, cleaved yes); SUMO (N, cleaved yes); made in house; host or cells: Rosetta2 (DE3) E. coli
T2 sequence (Q86WV6 140-379 G230A/H232R/R293Q limits assumed): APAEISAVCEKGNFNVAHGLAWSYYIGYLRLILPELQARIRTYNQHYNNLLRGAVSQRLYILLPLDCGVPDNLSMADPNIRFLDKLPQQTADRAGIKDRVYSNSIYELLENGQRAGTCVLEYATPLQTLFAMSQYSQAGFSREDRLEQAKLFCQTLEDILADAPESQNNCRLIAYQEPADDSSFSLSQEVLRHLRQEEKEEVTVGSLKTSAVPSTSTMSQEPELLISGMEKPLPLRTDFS
Procedure: as §1, §2, §3

[4] = biological target: hSTING(REF) (Homo sapiens, UniProt Q86WV6); test: Differential scanning fluorometry (DSF) binding to purified hSTING REF allele; design: DNA encoding amino acids 140-379 (amino acid numbering corresponding to Swiss Prot Q86WV6); 6xHIS (N, cleaved yes); SUMO (N, cleaved yes); made in house; host or cells: Rosetta2 (DE3) E. coli; settings: for hSTING Tm Shift REF: DSF, 1 mg/ml STING AA140-379, ligand 1 mM; for binding relative to OH reference compound, in words: Table 4 comment, REF allele hSTING
hSTING(REF), sequence (Q86WV6 140-379): as the sequence (Q86WV6 140-379 G230A/H232R/R293Q limits assumed) above, with A91G, R93H, Q154R counted along it
Procedure: as §1, §2, §3

[5] = biological target: T3, hSTING HAQ allele (Homo sapiens, UniProt Q86WV6, G230A/H232R/R293Q/R71H); test: IRF-3 inducible secreted luciferase reporter in THP1-Dual cells without digitonin; type: cell-based; settings: for activity relative to OH reference compound, in words: Table 5 comment, THP1 cells without digitonin; for EC50: without digitonin in THP1 cells (HAQ allele)
T3 construct: a human monocyte cell line containing the hSTING HAQ allele; host or cells: THP1-Dual cells
T3 sequence (Q86WV6 whole entry R71H/G230A/H232R/R293Q): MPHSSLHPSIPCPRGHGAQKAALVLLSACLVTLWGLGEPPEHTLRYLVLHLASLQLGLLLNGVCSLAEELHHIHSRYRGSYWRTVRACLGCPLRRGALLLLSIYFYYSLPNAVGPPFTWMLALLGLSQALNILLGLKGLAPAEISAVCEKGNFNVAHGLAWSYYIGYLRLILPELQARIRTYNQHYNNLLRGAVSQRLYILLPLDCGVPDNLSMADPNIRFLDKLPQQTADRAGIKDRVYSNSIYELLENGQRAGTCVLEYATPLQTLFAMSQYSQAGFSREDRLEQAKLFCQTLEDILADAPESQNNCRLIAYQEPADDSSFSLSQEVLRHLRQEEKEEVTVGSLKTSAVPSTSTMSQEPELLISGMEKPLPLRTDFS
Procedure: After 30 minutes, cells were washed and fresh RPMI media containing 10% FBS was added, and cells were incubated at 37° C. with 5% CO2 Cell culture supernatants from each sample were collected after overnight incubation, and 10 μL of the cell culture supernatants was added to 50 μL QUANTI-Luc reagent (Invivogen). Type I interferon activation was determined by measuring secreted luciferase levels on a SpectraMax M3 spectrophotometer (Molecular Devices). The EC50 value was determined from the dose-response curve for the 10 concentrations from the serial dilution of the reference compounds and compounds of the invention tested in this assay as listed in Table 5.

hSTING(WT), sequence (Q86WV6 140-379 H232R): as the sequence (Q86WV6 140-379 G230A/H232R/R293Q limits assumed) above, with A91G, Q154R counted along it

Row | Structure (SMILES) | hSTING Tm Shift WT [1] | Kd [2] | hSTING Tm Shift HAQ [3] | hSTING Tm Shift REF [4] | activity relative to OH reference compound, in words [5] | EC50 [5] | binding relative to OH reference compound, in words [4]
1 | Nc1ncnc2c1ncn2[C@@H]1O[C@@H]2CO[P@@](=O)(S)O[C@H]3[C@@H](F)[C@H](n4cnc5c(N)ncnc54)O[C@@H]3CO[P@](=O)(S)O[C@H]2[C@H]1F [Compound 6a, (2R,3R,3aR,5R,7aR,9R,10R,10aR,12S,14aR)-2,9-bis(6-amino-9H-purin-9-yl)-3,10-difluoro-5,12-dimercaptooctahydro-2H,7H-difuro [3,2-d:3′,2′-j][1,3,7,9]tetraoxa[2,8]diphosphacyclododecine 5,12-dioxide] |  | 0.029 µM |  |  | improved activity | 8 µM | 
2 | Nc1nc2c(ncn2[C@@H]2O[C@@H]3CO[P@@](=O)(S)O[C@H]4[C@@H](F)[C@H](n5cnc6c(N)ncnc65)O[C@@H]4CO[P@@](=O)(S)O[C@H]3[C@H]2F)c(=O)[nH]1 [Compound 14, 2-Amino-9-((2R,3R,3aR,5R,7aR,9R,10R,10aR,12R,14aR)-9-(6-amino-9H-purin-9-yl)-3,10-difluoro-5,12-dimercapto-5,12-dioxidooctahydro-2H,7H-difuro [3,2-d:3′,2′-j][1,3,7,9]tetraoxa[2,8]diphosphacyclododecin-2-yl)-1,9-dihydro-6H-purin-6-one] | 19.3 °C | 0.093 µM | 34.2 °C | 12.5 °C |  | 3 µM | 
3 | Nc1nc2c(ncn2[C@@H]2O[C@@H]3CO[P@](=O)(S)O[C@H]4[C@@H](F)[C@H](n5cnc6c(N)ncnc65)O[C@@H]4CO[P@@](=O)(S)O[C@H]3[C@H]2F)c(=O)[nH]1 [Compound 14a, 2-amino-9-((2R,3R,3aR,5R,7aR,9R,10R,10aR,12S,14aR)-9-(6-amino-9H-purin-9-yl)-3,10-difluoro-5,12-dimercapto-5,12-dioxidooctahydro-2H,7H-difuro [3,2-d:3′,2′-j][1,3,7,9]tetraoxa[2,8]diphosphacyclododecin-2-yl)-1,9-dihydro-6H-purin-6-one] |  | 0.098 µM |  |  | improved activity | 18 µM | 

More lines, now with the values ahead:

Row | hSTING Tm Shift WT [1] | Kd [2] | hSTING Tm Shift HAQ [3] | hSTING Tm Shift REF [4] | activity relative to OH reference compound, in words [5] | EC50 [5] | binding relative to OH reference compound, in words [4] | Structure (SMILES)
4 | 12.6 °C | 0.011 µM | 20.6 °C | 6.4 °C |  |  |  | Nc1ncnc2c1ncn2[C@@H]1O[C@@H]2COP(=O)(O)O[C@H]3[C@@H](F)[C@H](n4cnc5c(N)ncnc54)O[C@@H]3COP(=O)(O)O[C@H]2[C@H]1F [3'3'-(2'F-A)(2'F-A), reference compound]
5 | 9.3 °C | 0.684 µM | 15.3 °C | 7.0 °C |  | 89 µM |  | Nc1nc2c(ncn2[C@@H]2O[C@@H]3CO[P@](=O)(S)O[C@H]4[C@@H](F)[C@H](n5cnc6c(N)ncnc65)O[C@@H]4CO[P@@](=O)(S)O[C@H]3[C@H]2O)c(=O)[nH]1 [Compound 24a, 2-amino-9-((2R,3R,3aS,5R,7aR,9R,10R,10aR,12S,14aR)-9-(6-amino-9H-purin-9-yl)-10-fluoro-3-hydroxy-5,12-dimercapto-5,12-dioxidooctahydro-2H,7H-difuro[3,2-d:3′,2′-j][1,3,7,9]tetraoxa[2,8]diphosphacyclododecin-2-yl)-1,9-dihydro-6H-purin-6-one]
6 | 13.3 °C |  | 18.4 °C | 10.5 °C | improved activity | 23 µM | improved binding | CC(C)C(=O)Nc1nc2c(ncn2[C@@H]2O[C@@H]3CO[P@@](=O)(S)O[C@H]4[C@@H](F)[C@H](n5cnc6c(N)ncnc65)O[C@@H]4CO[P@@](=O)(S)O[C@H]3[C@H]2F)c(=O)[nH]1 [Compound 26, N-(9-((2R,3R,3aR,5R,7aR,9R,10R,10aR,12R,14aR)-9-(6-amino-9H-purin-9-yl)-3,10-difluoro-5,12-dimercapto-5,12-dioxidooctahydro-2H,7H-difuro[3,2-d:3′,2′-j][1,3,7,9]tetraoxa[2,8]diphosphacyclododecin-2-yl)-6-oxo-6,9-dihydro-1H-purin-2-yl)isobutyramide]
7 | 8.9 °C |  | 10.1 °C | 8.7 °C |  | > 150 µM | improved binding | O=C(Nc1ncnc2c1ncn2[C@@H]1O[C@@H]2CO[P@@](=O)(S)O[C@H]3[C@@H](F)[C@H](n4cnc5c(NC(=O)c6ccccc6)ncnc54)O[C@@H]3CO[P@@](=O)(S)O[C@H]2[C@H]1F)c1ccccc1 [Compound 27, N,N′-(((2R,3R,3aR,5R,7aR,9R,10R,10aR,12R,14aR)-3,10-difluoro-5,12-dimercapto-5,12-dioxidooctahydro-2H,7H-difuro [3,2-d:3′,2′-j][1,3,7,9]tetraoxa[2,8]diphosphacyclododecine-2,9-diyl)bis(9H-purine-9,6-diyl))dibenzamide]
8 | 14.3 °C |  | 27.7 °C | 7.8 °C |  | 10 µM |  | Nc1nc2c(ncn2[C@@H]2O[C@@H]3COP(=O)(O)O[C@H]4[C@@H](F)[C@H](n5cnc6c(N)ncnc65)O[C@@H]4COP(=O)(O)O[C@H]3[C@H]2F)c(=O)[nH]1 [Compound 30, 2-amino-9-((2R,3R,3aR,7aR,9R,10R,10aR,14aR)-9-(6-amino-9H-purin-9-yl)-3,10-difluoro-5,12-dihydroxy-5,12-dioxidooctahydro-2H,7H-difuro[3,2-d:3′,2′-j][1,3,7,9]tetraoxa[2,8]diphosphacyclododecin-2-yl)-1,9-dihydro-6H-purin-6-one]
